In US4342870A, “Novel 3-(1-piperidinylalkyl)-4H-pyrido[1,2-a]pyrimidin-4-one derivatives” (Janssen Pharmaceutica N.V., priority 1980, dated 1982):

Tests used:
[1] = test system: rats injected with compound 48/80; conditions: known serotonin antagonists; cited from earlier work
[2] = test system: effect of serotonin on the caudal artery of the rat; test: Antagonistic activity on the effect of serotonin on the caudal artery of the rat (Test 1); conditions: minimal concentration reducing amplitude of serotonin (40 ng/ml) contraction to at least 50% of normal; rat caudal artery strips; 5 min
Procedure: Test 1: Anta gonistic activity on the effect of serotonin on the caudal artery of the rat.
Caudal arteries from fasted male rats (210-235 g) are used in the test. Two helical strips having a length of 5-6 cm and a width of 2 mm are obtained from each artery and mounted vertically in a 100 ml organ bath containing an oxygenated Krebs-Henseleit solution. Submaximal contractions of the arterial strips are produced by adding single doses of serotonin (40 ng/ml) to the organ bath for 2 minutes with each time an interval of 10 minutes. The amplitude of the contraction is measured before and 5 minutes after adding the drug. After washing out, the agonist is added again three times in order to see whether the contraction is restored and normalized. […] In this connection the ED50 -values are the minimal concentrations of the concerned drugs which reduce the amplitude of the contraction to at least 50% of its normal value.

[3] = test system: gastric lesions induced by compound 48/80; test: Gastric lesion test: lesions induced by compound 48/80 (Test 2); type: in vivo, rat (male, Wistar inbred strain); conditions: Rattus norvegicus, po
Procedure: Test 2: Effects in gastric lesion tests
The shock, followed by dead, can be avoided if the rats are pretreated with a classical H 1 antagonist.
Male rats of a Wistar inbred strain, weighing 200-250 g, are starved overnight, water being available ad libitum. The test compounds are administered orally as a solution or as a suspension in aqueous medium. A control rat and a "blank" rat […]. One hour later 5-[4-(diphenylmethyl)-1-piperazinylmethyl]-1-methyl-1H-benzimidazole-2-methanol is administered subcutaneously to all rats at the dose of 2.5 mg/kg. […] Four hours after the intravenous injection of compound 48/80, the rats are decapitated and the stomachs are removed. Subsequently the stomachs are inspected for distension and contents (blood, fluid, food) and thoroughly rinsed. The macroscopic lesions are secured from 0 to +++, 0 corresponding to complete absence of visible lesions and the highest score corresponding to reddish rough patches covering more than half the glandular area.

CC[C@@H](CO)NC(=O)[C@@H]1C=C2c3cccc4c3c(cn4C)C[C@H]2N(C)C1 [methysergide]
prevention of cyanosis of ears and extremities, of lesions in the glandular area of the stomach and of abnormal gastric distension [1]: prevent completely

NC(=O)C1(N2CCCCC2)CCN(CCCC(=O)c2ccc(F)cc2)CC1 [pipamperone]
prevention of cyanosis of ears and extremities, of lesions in the glandular area of the stomach and of abnormal gastric distension [1]: prevent completely

Cc1nc2ccc(Br)cn2c(=O)c1CCN1CCC(c2c[nH]c3ccccc23)CC1 [H 7-Br, 7-bromo-3-[2-[4-(1H-indol-3-yl)-1-piperidinyl]ethyl]-2-methyl-4H-pyrido[1,2-a]pyrimidin-4-one]
Caudal Artery ED50 [2]: 0.31 ng/mL | ED50 [3]: 1.25 mg/kg

Cc1nc2ccccn2c(=O)c1CCN1CCC(C(=O)c2ccccc2)CC1 [H H CH2CH2 H C6 H5, 3-[2-(4-benzoyl-1-piperidinyl)ethyl]-2-methyl-4H-pyrido[1,2-a]pyrimidin-4-one]
Caudal Artery ED50 [2]: 0.63 ng/mL | ED50 [3]: 0.63 mg/kg

Cc1ccccc1C(=O)C1CCN(CCc2c(C)nc3ccccn3c2=O)CC1 [H H CH2CH2 H C6 H4.2CH3]
Caudal Artery ED50 [2]: 1.25 ng/mL

Cc1nc2cccc(C)n2c(=O)c1CCN1CCC(C(=O)c2ccc(F)cc2)CC1 [H 6-CH3 CH2CH2 H C6 H4 .4F]
Caudal Artery ED50 [2]: < 0.63 ng/mL | ED50 [3]: 2.5 mg/kg

Cc1ccn2c(=O)c(CCN3CCC(c4c[nH]c5ccccc45)CC3)c(C)nc2c1 [H 8-CH3, 3-[2-[4-(1H-indol-3-yl)-1-piperidinyl]ethyl]-2,8-dimethyl-4H-pyrido[1,2-a]pyrimidin-4-one]
Caudal Artery ED50 [2]: 0.31 ng/mL | ED50 [3]: 0.04 mg/kg

Cc1nc2ccccn2c(=O)c1CC(C)N1CCC(C(=O)c2ccc(F)cc2)CC1 (stereo not shown) [H H drawing 24 H C6 H4 .4F]
ED50 [3]: 2.5 mg/kg

Cc1cc(C)n2c(=O)c(CCN3CCC(c4c[nH]c5ccccc45)CC3)c(C)nc2c1 [6-CH3 8-CH3, 3-[2-[4-(1H-indol-3-yl)-1-piperidinyl]ethyl]-2,6,8-trimethyl-4H-pyrido[1,2-a]pyrimidin-4-one]
Caudal Artery ED50 [2]: 0.16 ng/mL | ED50 [3]: 0.63 mg/kg

Cc1ccc2nc(C)c(CCN3CCC(C(=O)c4ccc(F)cc4)CC3)c(=O)n2c1 [H 7-CH3 CH2CH2 H C6 H4.4F]
Caudal Artery ED50 [2]: 0.31 ng/mL | ED50 [3]: 0.02 mg/kg

Cc1nc2ccccn2c(=O)c1CCN1CCC(C(=O)c2cccs2)CC1 [H H CH2CH2 H 2-thienyl]
Caudal Artery ED50 [2]: 1.3 ng/mL

Cc1cc(C)n2c(=O)c(CCN3CCC(C(=O)c4ccc(F)cc4)CC3)c(C)nc2c1 [6-CH3 8-CH3 CH2CH2 H C6 H4.4F]
Caudal Artery ED50 [2]: 0.16 ng/mL | ED50 [3]: 0.02 mg/kg

Cc1ccc2nc(C)c(CCN3CCC(c4c[nH]c5ccccc45)CC3)c(=O)n2c1 [H 7-CH3, 3-[2-[4-(1H-indol-3-yl)-1-piperidinyl]ethyl]-2,7-dimethyl-4H-pyrido-[1,2-a]pyrimidin-4-one]
Caudal Artery ED50 [2]: 0.31 ng/mL | ED50 [3]: 0.63 mg/kg

Cc1nc2ccccn2c(=O)c1CCN1CCC(C(=O)c2ccc(F)cc2)CC1 [H H CH2CH2 H C6 H4 .4F, 3-[2-[4-(4-fluorobenzoyl)-1-piperidinyl]ethyl]-2-methyl-4H-pyrido[1,2-a]pyrimidin-4-one]
Caudal Artery ED50 [2]: 0.32 ng/mL | ED50 [3]: 0.016 mg/kg

CN1C[C@H](CNC(=O)OCc2ccccc2)C[C@@H]2c3cccc4c3c(cn4C)C[C@H]21 [metergoline]
prevention of cyanosis of ears and extremities, of lesions in the glandular area of the stomach and of abnormal gastric distension [1]: prevent completely

Cc1nc2ccccn2c(=O)c1CCN1CCC(C)(C(=O)c2ccc(F)cc2)CC1 [H H CH2CH2 CH3 C6 H 4 .4F]
Caudal Artery ED50 [2]: 0.63 ng/mL | ED50 [3]: 0.16 mg/kg

CN1CCC(=C2c3ccccc3C=Cc3ccccc32)CC1 [cyproheptadine]
prevention of cyanosis of ears and extremities, of lesions in the glandular area of the stomach and of abnormal gastric distension [1]: prevent completely

Cc1nc2ccccn2c(=O)c1CCN1CCC(c2c[nH]c3ccccc23)CC1 [H H, 3-[2-[4-(1H-indol-3-yl)-1-piperidinyl]ethyl]-2-methyl-4H-pyrido[1,2-a]pyrimidin-4-one]
Caudal Artery ED50 [2]: 0.14 ng/mL | ED50 [3]: 0.08 mg/kg

Cc1nc2cccc(C)n2c(=O)c1CCN1CCC(c2c[nH]c3ccccc23)CC1 [H 6-CH3, 3-[2-[4-(1H-indol-3-yl)-1-piperidinyl]ethyl]-2,6-dimethyl-4H-pyrido[1,2-a]pyrimidin-4-one]
Caudal Artery ED50 [2]: 0.08 ng/mL | ED50 [3]: 0.16 mg/kg

Cc1nc2ccc(Cl)cn2c(=O)c1CCN1CCC(c2c[nH]c3ccccc23)CC1 [H 7-Cl, 7-chloro-3-[2-[4-(1H-indol-3-yl)-1-piperidinyl]ethyl]-2-methyl-4H-pyrido[1,2-a]pyrimidin-4-one]
Caudal Artery ED50 [2]: 0.63 ng/mL | ED50 [3]: 0.63 mg/kg

O=C(CCCN1CCC2(CC1)C(=O)NCN2c1ccccc1)c1ccc(F)cc1 [spiperone]
prevention of cyanosis of ears and extremities, of lesions in the glandular area of the stomach and of abnormal gastric distension [1]: prevent completely

CN1CCN2c3ccccc3Cc3ccccc3C2C1 (stereo not shown) [mianserin]
prevention of cyanosis of ears and extremities, of lesions in the glandular area of the stomach and of abnormal gastric distension [1]: prevent completely

Cc1nc2ccccn2c(=O)c1CCN1CCC(O)(C(=O)c2ccc(F)cc2)CC1 [H H CH2CH2 OH C6 H4 .4F]
Caudal Artery ED50 [2]: 0.31 ng/mL | ED50 [3]: 2.5 mg/kg

CN1CCC(=C2c3ccccc3CCc3sccc32)CC1 [pizotifen]
prevention of cyanosis of ears and extremities, of lesions in the glandular area of the stomach and of abnormal gastric distension [1]: prevent completely

Cc1nc2ccc(Br)cn2c(=O)c1CCN1CCC(C(=O)c2ccc(F)cc2)CC1 [H 7-Br CH2CH2 H C6 H4 .4F]
Caudal Artery ED50 [2]: 0.31 ng/mL | ED50 [3]: < 0.63 mg/kg

Cc1ccn2c(=O)c(CCN3CCC(C(=O)c4ccc(F)cc4)CC3)c(C)nc2c1 [H 8-CH3 CH2CH2 H C6 H4 .4F]
Caudal Artery ED50 [2]: < 2.5 ng/mL | ED50 [3]: 0.04 mg/kg

Cc1nc2ccc(Cl)cn2c(=O)c1CCN1CCC(C(=O)c2ccc(F)cc2)CC1 [H 7-Cl CH2CH2 H C6 H4.4F]
Caudal Artery ED50 [2]: 1.25 ng/mL | ED50 [3]: 0.01 mg/kg

Cc1nc2ccccn2c(=O)c1CCN1CCC(CO)(C(=O)c2ccc(F)cc2)CC1.Cl.Cl.O [H H CH2CH2 CH2 OH C6 H4 .4F, 3-[2-[4-(4-fluorobenzoyl)-4-(hydroxymethyl)-1-piperidinyl]ethyl]-2-methyl-4H-pyrido[1,2-a]pyrimidin-4-one dihydrochloride monohydrate]
ED50 [3]: < 0.63 mg/kg

CN(C)CCCSc1ccccc1NC(=O)/C=C/c1ccccc1 [cinanserin]
prevention of cyanosis of ears and extremities, of lesions in the glandular area of the stomach and of abnormal gastric distension [1]: prevent completely
